The source of these data is PubChem BioAssay (NCI).

Molecules are shown by their SMILES.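 Values below derive from 48-hour exposures of cells grown in 96-well plates, with endpoints linearly interpolated between the two concentrations bracketing the appropriate inhibition level. Here, GI50 denotes the concentration required for 50% inhibition of growth. TGI is the concentration that stops growth completely.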

Test systems include MOLT-4 leukemia; RPMI-8226 leukemia; SNB-75 CNS; SN12C renal; SK-OV-3 ovarian; M19-MEL melanoma; OVCAR-8 ovarian; PC-3 prostate; DU-145 prostate.
Test in all cases: growth of human tumour cells (NCI), 48 h

For the compound `O=c1cc(-c2ccccc2)oc2cc(O)cc(O)c12`, the TGI is 61.1 µM in the experiment on MOLT-4 leukemia; 41.7 µM in the experiment on RPMI-8226 leukemia; 31.2 µM in the experiment with SNB-75 CNS; 54.6 µM with SN12C renal; 67 µM in the experiment on SK-OV-3 ovarian; 73.5 µM in the experiment on M19-MEL melanoma.
Take `COc1ccc(Cc2cc3c(cc2OCC(=O)O)OCO3)cc1`: the TGI in the experiment with MOLT-4 leukemia, with RPMI-8226 leukemia, in the experiment with SN12C renal, in the experiment on OVCAR-8 ovarian, with SK-OV-3 ovarian and with M19-MEL melanoma was more than 100 µM in each case.
For the compound `C#CCN(N=O)C(=O)NC(CCCNC(=O)OCc1ccccc1)C(=O)OCc1ccccc1` (stereo not drawn), the TGI in the experiment with MOLT-4 leukemia was 65.5 µM; with RPMI-8226 leukemia, more than 100 µM; in the experiment on SNB-75 CNS, more than 100 µM; in the experiment on SN12C renal, more than 100 µM; in the experiment on OVCAR-8 ovarian, more than 100 µM; in the experiment with SK-OV-3 ovarian it was more than 100 µM. This compound had a TGI in the experiment with M19-MEL melanoma of more than 100 µM.
For `CC(C)C1CC2C(=O)N(c3ccccc3)C(=O)C2c2[nH]c3ccccc3c21` (stereo not drawn), the TGI was more than 100 µM in the experiment on MOLT-4 leukemia; more than 100 µM in the experiment on RPMI-8226 leukemia; 23.5 µM with SNB-75 CNS; 40.1 µM in the experiment on OVCAR-8 ovarian; 79.4 µM with SK-OV-3 ovarian; more than 100 µM with M19-MEL melanoma.
For `Clc1ccc(C2=Nn3c(nnc3-c3cc(Cl)cc(Cl)c3Cl)SC2)cc1`, the GI50 is 38.8 µM in the experiment with MOLT-4 leukemia; 44.3 µM with RPMI-8226 leukemia; 73.4 µM with PC-3 prostate; 14.8 µM in the experiment with SNB-75 CNS; 34.2 µM in the experiment on DU-145 prostate; 75 µM in the experiment with SN12C renal. Besides, the figures for the GI50 in the experiment with OVCAR-8 ovarian and in the experiment on SK-OV-3 ovarian were 38.3 µM and 17.6 µM, respectively. Moreover, the TGI in the experiment on MOLT-4 leukemia was more than 100 µM; with RPMI-8226 leukemia it was more than 100 µM; in the experiment on PC-3 prostate, more than 100 µM; in the experiment on SNB-75 CNS, 34.2 µM; in the experiment with DU-145 prostate, more than 100 µM; in the experiment with SN12C renal, more than 100 µM. The TGI with OVCAR-8 ovarian was more than 100 µM; in the experiment on SK-OV-3 ovarian, 44.5 µM.
Turning to `N#CSc1c[nH]c2ccc(/C=C/C(=O)/C=C(/C=C/c3ccc4[nH]cc(SC#N)c4c3)OB(F)F)cc12`, the GI50 in the experiment on MOLT-4 leukemia was 0.306 µM; in the experiment with RPMI-8226 leukemia, 0.522 µM; with PC-3 prostate, 0.241 µM; in the experiment on SNB-75 CNS it was 2.38 µM; in the experiment with DU-145 prostate it was 0.694 µM; in the experiment on SN12C renal, 0.442 µM. For the same compound, the GI50 in the experiment on OVCAR-8 ovarian was 0.577 µM; with SK-OV-3 ovarian, 25.3 µM. The TGI was 1.62 µM with MOLT-4 leukemia; 1.95 µM in the experiment with PC-3 prostate; 11.1 µM in the experiment with SNB-75 CNS; 2.55 µM in the experiment on DU-145 prostate; 3.13 µM with SN12C renal; more than 100 µM in the experiment with OVCAR-8 ovarian. For the same compound, the TGI in the experiment with SK-OV-3 ovarian came to 88.3 µM.
`CN(C)C/C=C/C(=O)Nc1cc2c(Nc3ccc(F)c(Cl)c3F)ncnc2cc1OCCOC(F)F`: the GI50 in the experiment on MOLT-4 leukemia is 1.11 µM; in the experiment with RPMI-8226 leukemia it was 0.921 µM; with PC-3 prostate, 1.9 µM; in the experiment on SNB-75 CNS, 0.162 µM; with DU-145 prostate it was 0.191 µM; in the experiment with SN12C renal, 0.136 µM. For the same compound, the GI50 in the experiment on OVCAR-8 ovarian is 0.972 µM; with SK-OV-3 ovarian, less than 0.01 µM. The TGI in the experiment on MOLT-4 leukemia is 5.43 µM; in the experiment on RPMI-8226 leukemia it was 4.68 µM; in the experiment with PC-3 prostate, 9.09 µM; in the experiment on SNB-75 CNS it was 2.47 µM; in the experiment with DU-145 prostate, 3.34 µM; in the experiment on SN12C renal, 4.52 µM. This compound came in with a TGI in the experiment on OVCAR-8 ovarian of 9.9 µM.
Turning to `COc1ccc(-c2nc(C(=O)c3ccccc3)n(CC(=O)c3ccccc3)c2-c2ccc(OC)cc2)cc1`, the GI50 in the experiment with MOLT-4 leukemia, in the experiment with RPMI-8226 leukemia, in the experiment with PC-3 prostate, in the experiment on SNB-75 CNS, with DU-145 prostate and in the experiment with SN12C renal was more than 100 µM throughout. Moreover, the GI50 in the experiment with OVCAR-8 ovarian and in the experiment with SK-OV-3 ovarian was more than 100 µM throughout. The TGI in the experiment with MOLT-4 leukemia, in the experiment on RPMI-8226 leukemia, in the experiment on PC-3 prostate, in the experiment with SNB-75 CNS, in the experiment with DU-145 prostate and in the experiment on SN12C renal was more than 100 µM in each case. For the same compound, the TGI in the experiment with OVCAR-8 ovarian and in the experiment on SK-OV-3 ovarian was more than 100 µM throughout.
`O=S(=O)(SCc1ccccc1)C(c1ccccc1)c1ccccc1`: the TGI in the experiment on MOLT-4 leukemia was 43.7 µM; in the experiment with RPMI-8226 leukemia, 85.6 µM; in the experiment on SNB-75 CNS, more than 100 µM; in the experiment on SN12C renal, 68.2 µM; in the experiment on OVCAR-8 ovarian, 43.1 µM; with SK-OV-3 ovarian, more than 100 µM. The compound further showed a TGI in the experiment on M19-MEL melanoma of more than 100 µM.
For `O=[N+]([O-])/C=C/c1cc2ccccc2[nH]1`, the TGI amounted to 44.2 µM in the experiment with MOLT-4 leukemia; 9.85 µM in the experiment on RPMI-8226 leukemia; 31.7 µM in the experiment on PC-3 prostate; 28.6 µM in the experiment on SNB-75 CNS; 28.8 µM in the experiment with DU-145 prostate; 37.2 µM in the experiment on SN12C renal. Besides, the TGI was determined as 48.8 µM in the experiment with OVCAR-8 ovarian and 32.8 µM in the experiment with SK-OV-3 ovarian.
On to `CCn1cc(-c2ccnc3[nH]ccc23)c(-c2cccc(NC(=O)Nc3ccc(OCc4ccccc4)cc3)c2)n1`, for which the GI50 with MOLT-4 leukemia is 6.85 µM; in the experiment on RPMI-8226 leukemia, 4.19 µM; in the experiment on PC-3 prostate, 10.6 µM; with SNB-75 CNS, 4.35 µM; in the experiment with DU-145 prostate it was more than 25 µM; in the experiment on SN12C renal, more than 25 µM. The GI50 in the experiment with OVCAR-8 ovarian was 15.7 µM; with SK-OV-3 ovarian, more than 22.4 µM. Also, the TGI in the experiment on MOLT-4 leukemia, in the experiment with RPMI-8226 leukemia, with PC-3 prostate, with SNB-75 CNS, in the experiment with DU-145 prostate and in the experiment with SN12C renal was more than 25 µM each time. Moreover, the TGI with OVCAR-8 ovarian and with SK-OV-3 ovarian was more than 25 µM in each case.
In the case of `CN1CCN(c2cc(C(=O)Nc3cc4cc(-c5cnn(C)c5)ccc4cn3)ccn2)CC1`, the GI50 was 0.221 µM in the experiment with MOLT-4 leukemia; 0.108 µM in the experiment with RPMI-8226 leukemia; 0.314 µM in the experiment on PC-3 prostate; 0.137 µM in the experiment with SNB-75 CNS; 0.0971 µM with DU-145 prostate; 0.123 µM in the experiment with SN12C renal. The figures for the GI50 with OVCAR-8 ovarian and in the experiment with SK-OV-3 ovarian were 0.225 µM and 0.0631 µM, respectively. Further, the TGI with MOLT-4 leukemia came out at 18 µM; in the experiment on PC-3 prostate it was 31.4 µM; in the experiment on SNB-75 CNS it was 0.833 µM; in the experiment on DU-145 prostate, 11.4 µM; with SN12C renal, 12.7 µM; in the experiment with OVCAR-8 ovarian it was 11.7 µM. For the same compound, in the experiment with SK-OV-3 ovarian, the TGI came to 2.44 µM.
